Results: PubChem BioAssay (NCI)
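Values below derive from 48-hour exposures of cells grown in 96-well plates, with endpoints linearly interpolated between the two concentrations bracketing the appropriate inhibition level. GI50 is the concentration that inhibits growth by half. TGI is the concentration that stops growth completely.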

Experiments:
Test in all cases: NCI-60 cell line screen, 48 h
A549 NSCLC = tested on: A549 NSCLC
PC-3 prostate = tested on: PC-3 prostate
SK-OV-3 ovarian = tested on: SK-OV-3 ovarian
SK-MEL-28 melanoma = tested on: SK-MEL-28 melanoma
OVCAR-8 ovarian = tested on: OVCAR-8 ovarian
HT29 colon = tested on: HT29 colon
ACHN renal = tested on: ACHN renal
RXF 393 renal = tested on: RXF 393 renal
MCF7 breast = tested on: MCF7 breast
SR leukemia = tested on: SR leukemia

Structure (SMILES) | TGI (A549 NSCLC) | TGI (PC-3 prostate) | TGI (SK-OV-3 ovarian) | TGI (SK-MEL-28 melanoma) | TGI (OVCAR-8 ovarian) | TGI (HT29 colon) | TGI (ACHN renal) | TGI (RXF 393 renal) | TGI (MCF7 breast) | TGI (SR leukemia) | GI50 (A549 NSCLC) | GI50 (PC-3 prostate) | GI50 (SK-OV-3 ovarian) | GI50 (SK-MEL-28 melanoma) | GI50 (OVCAR-8 ovarian) | GI50 (HT29 colon) | GI50 (ACHN renal) | GI50 (RXF 393 renal) | GI50 (MCF7 breast) | GI50 (SR leukemia)
C[C@H]1CC[C@@H]2[C@@H](C)[C@H]3[C@H](C[C@H]4[C@@H]5CC=C6C[C@@H](O)CC[C@]6(C)[C@H]5CC[C@]34C)N2C1 | > 100 µM | > 100 µM | > 100 µM | > 100 µM | > 100 µM | 43 µM | > 100 µM | 46.1 µM | > 100 µM | 56.1 µM |  |  |  |  |  |  |  |  |  | 
CN(C)CCOc1ccc2c(c1)C(=O)/C(=C\c1ncc([N+](=O)[O-])n1C)C2 | 5.14 µM | 4.82 µM | 3.21 µM | 2.79 µM | > 20.5 µM | 2.25 µM | 2.37 µM | 1.25 µM | 2.5 µM | 0.96 µM | 0.37 µM | 0.965 µM | 0.923 µM | 0.922 µM | 0.95 µM | 0.346 µM | 0.298 µM | 0.316 µM | 0.216 µM | 0.416 µM
CCCC(=O)OC(OC(=O)CCC)c1ccc([N+](=O)[O-])o1 | > 100 µM | > 100 µM | > 100 µM | 46.9 µM | > 100 µM | 42.8 µM | 49.9 µM | 54 µM | 35.4 µM | 53.1 µM |  |  |  |  |  |  |  |  |  | 
O=C1C=CC(=O)c2c(O)c(N(CCCl)CCCl)c(Cl)c(O)c21 | > 10 µM | > 8.55 µM | > 10 µM | > 6.98 µM | 6.9 µM | > 8.53 µM | 5.6 µM | > 6.69 µM | > 8.33 µM | > 10 µM |  |  |  |  |  |  |  |  |  | 
CN(C)Cc1cc(C(C)(C)C)cc(CN(C)C)c1O | > 100 µM | > 100 µM | > 100 µM | > 100 µM | > 100 µM | > 100 µM | > 100 µM | > 100 µM | > 100 µM | > 100 µM |  |  |  |  |  |  |  |  |  | 
C1CC[N-]CC1.CC(=N\O)/C(C)=N/O.CC(=N\O)/C(C)=N/O.C[CH-]C(C)O.[Co+2] | > 100 µM | 70.8 µM | > 100 µM | 61.2 µM | 59.6 µM | > 100 µM | 81.2 µM | 43.8 µM | 57.8 µM | 45 µM | 47.3 µM | 26.7 µM | 89 µM | 29.2 µM | 21.2 µM | 34.3 µM | 23.8 µM | 15 µM | 24.4 µM | 18.2 µM
Cc1c2ccccc2c(C)n2c1nc1cc(Cl)c(Cl)cc12 | > 100 µM | > 100 µM | > 100 µM | > 100 µM | > 100 µM | > 100 µM | > 100 µM | > 100 µM | > 100 µM | 44.7 µM | > 100 µM | 31.4 µM | > 100 µM | > 100 µM | > 100 µM | 31 µM | 26 µM | > 100 µM | 1.09 µM | 12.9 µM
Cc1nc2sc(C(=O)Nc3ccccc3)c(N)c2cc1C(=O)c1ccccc1 | > 50 µM | > 50 µM | > 50 µM | > 50 µM | > 50 µM | 9.54 µM | > 50 µM | 34.3 µM | > 50 µM | 18.1 µM | 0.853 µM | 1.66 µM | 2.35 µM | 8.82 µM | 3.86 µM | 1.75 µM | 4.52 µM | 1.83 µM | 1.73 µM | 0.923 µM
COc1cc2c(=O)n(CC3CCCCC3)c3c4cc[nH]c4ncc3c2cc1OC | 16.9 µM | 12.2 µM | 24.2 µM | 31.2 µM | > 50 µM | 15.2 µM | 10.4 µM | 5.55 µM | > 50 µM | > 50 µM | 5 µM | 2.23 µM | 4.36 µM | 7.25 µM | 5 µM | 2.85 µM | 2.16 µM | 0.407 µM | 0.64 µM | 0.313 µM
COC(=O)[C@@H](C)C[C@H](Cc1ccccc1)NC(=O)c1csc([C@@H](C[C@H](C(C)C)N(C)C(=O)[C@@H](NC(=O)[C@H]2CCCCN2C)C(C(F)(F)F)C(F)(F)F)OC(C)=O)n1 | > 16.7 µM | 3.87 µM | > 16.7 µM | > 16.7 µM | > 16.7 µM | 0.256 µM | > 16.7 µM |  | > 16.7 µM | > 16.7 µM | 0.114 µM | 0.0452 µM | 0.07 µM | 0.102 µM | 0.0927 µM | 0.0495 µM | 0.111 µM |  | 0.0118 µM | 0.00743 µM
COc1ccc(/C=C/C(=O)c2ccc(Nc3nc(Nc4ccc(F)cc4)nc(Nc4ccc(F)cc4)n3)cc2)cc1 | 34 µM | 21.4 µM | 88.4 µM | > 100 µM | 30.1 µM | > 100 µM | > 100 µM | 14.2 µM | 34.3 µM | 51.6 µM | 10.1 µM | 5.06 µM | 17.1 µM | 56.8 µM | 8.49 µM | 18.1 µM | 30.4 µM | 3.09 µM | 5.59 µM | 4.66 µM
NC1=C(O)C(=O)C(c2c[nH]c3ccc(OCc4ccccc4)cc23)O1 (configuration not stated) | > 100 µM | > 100 µM | > 100 µM | > 100 µM | > 100 µM | > 100 µM | > 100 µM | > 100 µM | > 100 µM | > 100 µM |  |  |  |  |  |  |  |  |  | 
COC(=N)CCCl | > 100 µM | > 100 µM | > 100 µM | > 100 µM | > 100 µM | > 100 µM | > 100 µM | > 100 µM | > 100 µM | > 100 µM |  |  |  |  |  |  |  |  |  | 
Cn1cccc1-c1cc(-c2ccccc2)nc(N)c1C#N | > 100 µM | > 100 µM | > 100 µM | > 100 µM | > 100 µM | > 100 µM | > 100 µM | > 100 µM | > 100 µM | > 100 µM | > 100 µM | > 100 µM | > 100 µM | > 100 µM | > 100 µM | > 100 µM | > 100 µM | > 100 µM | > 100 µM | 40.8 µM
Nc1ccn(C2CC3OCC3O2)c(=O)n1 (configuration not stated) | > 100 µM | > 100 µM | > 100 µM | > 100 µM | > 100 µM | > 100 µM | > 100 µM |  | > 100 µM | > 100 µM |  |  |  |  |  |  |  |  |  | 
